Results published in PubChem BioAssay (NCI).
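Each compound was tested at five concentrations against cells in 96-well plates for 48 hours. The concentration for 50% growth inhibition is given as GI50. TGI is the concentration that stops growth completely.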

Experiments:
Test in all cases: NCI tumour cell line growth inhibition, 48 h
MDA-MB-435 = test system: MDA-MB-435
A549 NSCLC = test system: A549 NSCLC
CCRF-CEM leukemia = test system: CCRF-CEM leukemia
UACC-257 melanoma = test system: UACC-257 melanoma
OVCAR-3 ovarian = test system: OVCAR-3 ovarian
DU-145 prostate = test system: DU-145 prostate
HT29 colon = test system: HT29 colon
SK-MEL-2 melanoma = test system: SK-MEL-2 melanoma
NCI-H460 lung = test system: NCI-H460 lung
OVCAR-5 ovarian = test system: OVCAR-5 ovarian
MALME-3M melanoma = test system: MALME-3M melanoma
PC-3 prostate = test system: PC-3 prostate
UACC-62 melanoma = test system: UACC-62 melanoma
SF-539 CNS = test system: SF-539 CNS
K-562 leukemia = test system: K-562 leukemia
RPMI-8226 leukemia = test system: RPMI-8226 leukemia
TK-10 renal = test system: TK-10 renal
ACHN renal = test system: ACHN renal
HCT-116 colon = test system: HCT-116 colon
EKVX NSCLC = test system: EKVX NSCLC
IGROV1 ovarian = test system: IGROV1 ovarian
BT-549 breast = test system: BT-549 breast
T-47D breast = test system: T-47D breast
SR leukemia = test system: SR leukemia
SNB-75 CNS = test system: SNB-75 CNS
KM12 colon = test system: KM12 colon
MCF7 breast = test system: MCF7 breast
SN12C renal = test system: SN12C renal
LOX IMVI melanoma = test system: LOX IMVI melanoma
NCI/ADR-RES ovarian = test system: NCI/ADR-RES ovarian
SNB-19 CNS = test system: SNB-19 CNS
HOP-92 NSCLC = test system: HOP-92 NSCLC
HCT-15 colon = test system: HCT-15 colon
SW-620 colon = test system: SW-620 colon
SK-OV-3 ovarian = test system: SK-OV-3 ovarian
A498 renal = test system: A498 renal
786-0 renal = test system: 786-0 renal
U251 CNS = test system: U251 CNS
HL-60(TB) leukemia = test system: HL-60(TB) leukemia
COLO 205 colon = test system: COLO 205 colon
HOP-62 NSCLC = test system: HOP-62 NSCLC
MDA-MB-231 breast = test system: MDA-MB-231 breast
OVCAR-4 ovarian = test system: OVCAR-4 ovarian
NCI-H522 lung = test system: NCI-H522 lung
OVCAR-8 ovarian = test system: OVCAR-8 ovarian
MOLT-4 leukemia = test system: MOLT-4 leukemia
HS 578T breast = test system: HS 578T breast
HCC-2998 colon = test system: HCC-2998 colon
RXF 393 renal = test system: RXF 393 renal
SF-295 CNS = test system: SF-295 CNS
CAKI-1 renal = test system: CAKI-1 renal
SK-MEL-5 melanoma = test system: SK-MEL-5 melanoma
UO-31 renal = test system: UO-31 renal
M14 melanoma = test system: M14 melanoma
NCI-H226 lung = test system: NCI-H226 lung
SK-MEL-28 melanoma = test system: SK-MEL-28 melanoma
SF-268 CNS = test system: SF-268 CNS

For `C[C@@H](Nc1c(C#N)cnc2ccc(-c3cnc(N)nc3)cc12)c1ccccc1`, the GI50 (MDA-MB-435) was 2610 nM, the TGI (MDA-MB-435) was over 100000 nM and the GI50 (A549 NSCLC) was 1550 nM. For the same compound, the TGI (A549 NSCLC) was 13700 nM, the GI50 (CCRF-CEM leukemia) was 1890 nM and the TGI (CCRF-CEM leukemia) was over 100000 nM. For the same compound, the GI50 (UACC-257 melanoma) was 2790 nM, the TGI (UACC-257 melanoma) was 17100 nM and the GI50 (OVCAR-3 ovarian) was 2740 nM. The TGI (OVCAR-3 ovarian) was over 100000 nM, the GI50 (DU-145 prostate) was 1910 nM and the TGI (DU-145 prostate) was over 100000 nM. It also gave a GI50 (HT29 colon) of 2430 nM, a TGI (HT29 colon) of over 100000 nM and a GI50 (SK-MEL-2 melanoma) of 1760 nM. The TGI (SK-MEL-2 melanoma) was 5540 nM, the GI50 (NCI-H460 lung) was 1730 nM and the TGI (NCI-H460 lung) was 44600 nM. For the same compound, the GI50 (OVCAR-5 ovarian) was 1620 nM, the TGI (OVCAR-5 ovarian) was 83800 nM and the GI50 (MALME-3M melanoma) was 1590 nM. It also gave a TGI (MALME-3M melanoma) of 7830 nM, a GI50 (PC-3 prostate) of 1540 nM and a TGI (PC-3 prostate) of 10100 nM. It also gave a GI50 (UACC-62 melanoma) of 2240 nM, a TGI (UACC-62 melanoma) of 10000 nM and a GI50 (SF-539 CNS) of 2210 nM. The TGI (SF-539 CNS) was 12800 nM, the GI50 (K-562 leukemia) was 2490 nM and the TGI (K-562 leukemia) was over 100000 nM. For the same compound, the GI50 (RPMI-8226 leukemia) was 588 nM, the TGI (RPMI-8226 leukemia) was 4920 nM and the GI50 (TK-10 renal) was 289 nM. It also gave a TGI (TK-10 renal) of 3450 nM, a GI50 (ACHN renal) of 942 nM and a TGI (ACHN renal) of 40900 nM. It also gave a GI50 (HCT-116 colon) of 2460 nM, a TGI (HCT-116 colon) of 11100 nM and a GI50 (EKVX NSCLC) of 552 nM. It also gave a TGI (EKVX NSCLC) of 5000 nM, a GI50 (IGROV1 ovarian) of 454 nM and a TGI (IGROV1 ovarian) of 3870 nM. It also gave a GI50 (BT-549 breast) of 1050 nM, a TGI (BT-549 breast) of 6340 nM and a GI50 (T-47D breast) of 907 nM. It also gave a TGI (T-47D breast) of 7860 nM, a GI50 (SR leukemia) of 2380 nM and a TGI (SR leukemia) of over 100000 nM. For the same compound, the GI50 (SNB-75 CNS) was 1580 nM, the TGI (SNB-75 CNS) was 37500 nM and the GI50 (KM12 colon) was 2670 nM. The TGI (KM12 colon) was over 100000 nM, the GI50 (MCF7 breast) was 1150 nM and the TGI (MCF7 breast) was 17300 nM. It also gave a GI50 (SN12C renal) of 1140 nM, a TGI (SN12C renal) of 24200 nM and a GI50 (LOX IMVI melanoma) of 1640 nM. For the same compound, the TGI (LOX IMVI melanoma) was 11000 nM, the GI50 (NCI/ADR-RES ovarian) was 2870 nM and the TGI (NCI/ADR-RES ovarian) was 18100 nM. For the same compound, the GI50 (SNB-19 CNS) was 2230 nM, the TGI (SNB-19 CNS) was 60600 nM and the GI50 (HOP-92 NSCLC) was 185 nM. It also gave a TGI (HOP-92 NSCLC) of 1110 nM, a GI50 (HCT-15 colon) of 1740 nM and a TGI (HCT-15 colon) of 22600 nM. It also gave a GI50 (SW-620 colon) of 3730 nM, a TGI (SW-620 colon) of over 100000 nM and a GI50 (SK-OV-3 ovarian) of 2160 nM. It also gave a TGI (SK-OV-3 ovarian) of 7380 nM, a GI50 (A498 renal) of 301 nM and a TGI (A498 renal) of 3480 nM. It also gave a GI50 (786-0 renal) of 1600 nM, a TGI (786-0 renal) of 36400 nM and a GI50 (U251 CNS) of 2130 nM. It also gave a TGI (U251 CNS) of 77500 nM, a GI50 (HL-60(TB) leukemia) of 2070 nM and a TGI (HL-60(TB) leukemia) of over 100000 nM. For the same compound, the GI50 (COLO 205 colon) was 3060 nM, the TGI (COLO 205 colon) was 13400 nM and the GI50 (HOP-62 NSCLC) was 1980 nM. It also gave a TGI (HOP-62 NSCLC) of 27800 nM, a GI50 (MDA-MB-231 breast) of 1820 nM and a TGI (MDA-MB-231 breast) of 50400 nM. It also gave a GI50 (OVCAR-4 ovarian) of 1220 nM, a TGI (OVCAR-4 ovarian) of 7870 nM and a GI50 (NCI-H522 lung) of 1730 nM. The TGI (NCI-H522 lung) was 10600 nM, the GI50 (OVCAR-8 ovarian) was 2500 nM and the TGI (OVCAR-8 ovarian) was 24000 nM. It also gave a GI50 (MOLT-4 leukemia) of 1580 nM, a TGI (MOLT-4 leukemia) of over 100000 nM and a GI50 (HS 578T breast) of 1190 nM. It also gave a TGI (HS 578T breast) of 6820 nM, a GI50 (HCC-2998 colon) of 2780 nM and a TGI (HCC-2998 colon) of over 100000 nM. It also gave a GI50 (RXF 393 renal) of 886 nM, a TGI (RXF 393 renal) of 4590 nM and a GI50 (SF-295 CNS) of 1380 nM. It also gave a TGI (SF-295 CNS) of 7450 nM, a GI50 (CAKI-1 renal) of 781 nM and a TGI (CAKI-1 renal) of 11600 nM. The GI50 (SK-MEL-5 melanoma) was 1840 nM, the TGI (SK-MEL-5 melanoma) was 3990 nM and the GI50 (UO-31 renal) was 310 nM. For the same compound, the TGI (UO-31 renal) was 8900 nM, the GI50 (M14 melanoma) was 2800 nM and the TGI (M14 melanoma) was 16700 nM. It also gave a GI50 (NCI-H226 lung) of 1810 nM, a TGI (NCI-H226 lung) of 12700 nM and a GI50 (SK-MEL-28 melanoma) of 2950 nM. The TGI (SK-MEL-28 melanoma) was 26900 nM, the GI50 (SF-268 CNS) was 3220 nM and the TGI (SF-268 CNS) was over 100000 nM.
